Results as given in BindingDB's records for patent US20230303553 (Jiangsu Tasly Diyi Pharmaceutical, 2023).

Biological target: Cyclin-dependent kinase 6 (Homo sapiens, UniProt Q00534)
Test: CDK6 Kinase Activity Analysis and Detection Method

Cyclin-dependent kinase 6, sequence (Q00534 whole entry): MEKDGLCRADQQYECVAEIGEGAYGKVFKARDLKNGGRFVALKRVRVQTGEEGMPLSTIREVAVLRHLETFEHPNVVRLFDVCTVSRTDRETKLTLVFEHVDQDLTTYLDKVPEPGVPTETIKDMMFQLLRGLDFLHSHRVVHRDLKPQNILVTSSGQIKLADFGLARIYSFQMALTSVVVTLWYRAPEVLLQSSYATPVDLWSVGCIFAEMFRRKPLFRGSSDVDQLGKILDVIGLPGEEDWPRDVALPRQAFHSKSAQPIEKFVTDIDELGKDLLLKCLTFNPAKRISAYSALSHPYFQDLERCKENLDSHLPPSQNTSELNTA

CCN1CCN(C(=O)c2ccc(Nc3ncc(F)c(-c4ccc5nc(C)sc5c4)n3)nc2)CC1 [US20230303553, Example 12]
IC50: 127 nM
